Reference: patent US20100152129A1 (priority 2008, published 2010)

Tests used:
[1] = system: Panc-1 cells; assay: Microarray gene expression analysis; assay type: cell-based, human; settings: Panc-1, microarray
Description: The goal of the microarray analysis was to evaluate putative gene expression signatures associated with the in vitro synergistic effect of the combination therapy of Gemcitabine with […]-00 in Panc-1 cells. The time points (3 hrs, 6 hrs, 12 hrs) were chosen to establish early molecular changes in the transcription profile for probable biomarkers and mechanism of action for the combination therapy. Approximately 20 million cells were lysed in Trizol Reagent (Invitrogen Corp, USA) and passed through a 21-gauge needle for 5-10 times before RNA extraction was performed. Total RNA extraction was performed using the RNeasy Mini kit (Qiagen, USA) according to the manufacturer's protocol. The final total RNA was eluted in nuclease-free water and the concentration/purity was determined by Nanodrop spectrophotometer (Thermo Fisher Scientific, Delaware, USA). cDNA generation and labeling: 20 μg of total RNA was reverse transcribed using amino allyl dUTP and oligo dT, the resulting cDNA was indirectly labeled with Cy3/Cy5 dyes (GE Healthcare, USA) using a fluorescent labeling kit (Promega Biosciences, USA). The concentration and dye incorporation of the labeled products were determined by Nanodrop spectrophotometer (Thermo Fisher Scientific, Delaware, USA). Equal amounts of labeled cDNA were denatured at 95° C. for 5 mins, cooled and microfuged at 13200 rpm for 5 mins before hybridization. Array fabrication and hybridization: 70-mer transcript oligonucleotides representing 36,480 human genes was purchased from Operon Biotechnologies (Germany) and spotted onto aminosilane coated glass slides (ArrayIt, USA) by contact printing using a Omnigrid (OG100) spotter (Genomic Solutions Inc, USA). Post printing, the slides were cross-linked with UV light at […], vacuumed, sealed and stored in the dark. The slides were pre-processed for background reduction using Pronto (Promega Life sciences, USA) pre-hyb kit as per the manufacturer's instructions. Hybridization was carried out in the GeneTAC Hybstation (Genomic Solutions Inc, USA) for 18 hrs. The hybridization protocol is as follows: 6 hrs at 42° C. (with agitation), 6 hrs at 35° C. (with agitation), and 6 hrs at 30° C. (with agitation). Post hybridization, the arrays were washed according to the manufacturer's protocol. The slides were dried by centrifugation at 1600 rpm for 5 mins. Scanning and image analysis: Post drying, the slides were scanned in a laser scanner (Genomic Solutions, USA) for Cy3 and Cy5 detection. The PMT settings were adjusted using the auto-exposure feature of the scanner. The TIFF files thus generated were exported to GeneTAC Integrator software (Genomic Solutions, USA) for image analysis. The resultant CSV file containing the annotated genome and the corresponding ratios were further used for data analysis.

[2] = system: Panc-1 cells; assay: Cell cycle analysis by DNA content (propidium iodide, flow cytometry); assay type: cell-based; settings: control 5.5%
Experimental: Understanding the status of cells cycles G1, S, G2 and M is indicative of the cytotoxic effect including apoptosis and DNA damage of anticancer drugs. In the current study FACS was used to measure the cell cycle stages in Panc 1 cells after exposure to anticancer drugs including drug combination. The synergistic effect of Gemcitabine with […]-00 on Panc-1 cancer cells was analyzed using propidium iodide based cell cycle analysis where total population of cells was sorted as sub G0, G1, S and G2/M populations according to total fluorescent intensity. […]-00 at a final concentration of 60 nM, 240 nM and 480 nM and Gemcitabine at a final concentration of 1 nM, 3 nM and 10 nM were analyzed in single dose and in all possible combinations of the dose range for the Gemcitabine and […]-00. Panc-1 cells were treated with Gemcitabine for 0 to 24 hrs. After 24 hrs the cells were washed twice with plain MEM. Fresh MEM with 10% serum (2 mL/well) was added to the wells, followed by treatment with […]-00 for 24 hrs to 96 hrs. After 96 hrs the treated cells were harvested, fixed, stained with propidium iodide and analyzed for specific cell arrest using DNA content analysis by flow cytometry. Adherent cells were trypsinized and washed with PBS or HBSS without Ca++ and Mg++ containing EDTA pH 8.0 and BSA. They were further isolated, centrifuged and total number of cells were counted and recorded. […]

[3] = system: Panc-1 cells; assay: Propidium iodide-based fluorescence cytotoxicity assay; assay type: cell-based; settings: single agent
Experimental: The combination of P276-00 and Gemcitabine was screened for its synergistic effect in Panc-1 cells using propidium iodide based fluorescence cytotoxicity assay.
Test System: The Panc-1 cell line was procured from ATCC (American Tissue type Culture Collection), USA. Catalog number: CRL-1469 and the frozen vial was stored in liquid nitrogen container. Propidium iodide dye was procured from Sigma-Aldrich, USA. Catalog number: P-4170-100 mg and it was stored at 2-8° C.
Method: Panc-1 cells were seeded at a density of 2000 cells/well, in a 200 μL in tissue culture grade 96 well plate and allowed to recover for 24 hrs in a humidified 5%±0.2 CO2 incubator at 37° C.±0.5° C. After 24 hrs, 1 μL of 200 X (200 times higher than required concentration is denoted as 200×) compound (dissolved in neat DMSO), as per Table 1 or 2 was added to the wells. The final DMSO concentration was 0.5% in wells. The plate was incubated for 24 hrs in humidified 5%±0.2 CO2 incubator at 37±0.5° C.
After 24 hrs Minimum Essential Medium (MEM) from the Gemcitabine treated wells was removed and washed two times with fresh MEM and followed by addition of 200 μL of fresh MEM per well. 1 μL of 200× (200 times higher than required concentration is denoted as 200×) compound (dissolved in neat DMSO) was then added as per the Table 1 and 2 designs. The final DMSO concentration was 0.5% in wells which also served as the vehicle control for the study. After 72 hrs the plate was removed from CO2 incubator and spent MEM aspirated from the wells and supplemented with fresh MEM. This was followed by addition of 25 μL of propidium iodide (50 μg/ml in medium) per well. The same plate was frozen at −80° C. for 24 hrs and then thawed and allowed to come to room temperature. The fluorescence at a wavelength of 530 nm excitation and 620 nm emission was read.
The percent cytotoxicity was calculated using the following formula

SMILES | CDK8 gene expression value (log value of intensities) [1] | DICER1 gene expression value (log value of intensities) [1] | DLG5 gene expression value (log value of intensities) [1] | DNAI1 gene expression value (log value of intensities) [1] | FA38A gene expression value (log value of intensities) [1] | FGF5 gene expression value (log value of intensities) [1] | HELLS gene expression value (log value of intensities) [1] | HIST1H2BO gene expression value (log value of intensities) [1] | ID1 gene expression value (log value of intensities) [1] | MKKS gene expression value (log value of intensities) [1] | PPIL4 gene expression value (log value of intensities) [1] | RRM2 gene expression value (log value of intensities) [1] | SLC19A2 gene expression value (log value of intensities) [1] | SNX7 gene expression value (log value of intensities) [1] | TMPRSS3 gene expression value (log value of intensities) [1] | also measured
Nc1ccn([C@@H]2O[C@H](CO)[C@@H](O)C2(F)F)c(=O)n1 [Gemcitabine, 2′, 2′-difluorodeoxycytidine] | −0.03 | −0.16 | −0.19 | 0.03 | −0.70 | 0.28 | 0.40 | −0.71 | −0.60 | −0.02 | 0.36 | 0.69 | 0.37 | 0.27 | 0.85 | population of cells in sub G0 (apoptotic cells) ([2]; 1 nM alone): 16.85%; cytotoxicity at 0.0001 µM ([3]; Homo sapiens, PANC-1, 0.1 nM): 10%
CN1CC[C@@H](c2c(O)cc(O)c3c(=O)cc(-c4ccccc4Cl)oc23)[C@@H]1CO.Cl (relative stereo) [P276-00, (+)-trans-2-(2-Chloro-phenyl)-5,7-dihydroxy-8-(2-hydroxy-methyl-1-methyl-pyrrolidin-3-y1)-chromen-4-one hydrochloride] | 0.16 | 0.14 | 0.25 | −0.20 | −0.93 | 0.23 | 0.62 | −0.39 | 0.18 | −0.08 | 0.30 | −0.14 | 0.97 | −0.12 | 0.33 | population of cells in sub G0 (apoptotic cells) ([2]; 60 nM alone): 17.6%; % Cytotoxicity ([3]; 60 nM): 27%; % Cytotoxicity ([3]; 120 nM): 33%; % Cytotoxicity ([3]; 240 nM): 35%; % Cytotoxicity ([3]; 480 nM): 45%; % Cytotoxicity ([3]; 960 nM): 58%
